The data set is described as follows: Hygroscopicity test by Dynamic Vapour Sorption (DVS 1000, SMS). The following applies: for hygroscopicity (in words): DVS, 0-90% RH at 25° C. It is filed as physicochemical. From the text:
The observed water uptake was investigated by submitting a sample of such substances to a hygroscopicity test by means of a DVS 1000 (SMS). The apparatus is a “controlled atmosphere microbalance” where the weighed sample is exposed to programmed variations of the relative humidity (RH) at a constant and controlled temperature. The measured parameters (weight, time and RH), reported in Excel worksheets, allow obtaining hygroscopicity curves over the tested RH range. For example, sorption/desorption cycles between 0% and 90% RH can be performed at controlled temperature of 25° C. Progressive variations of RH can be, for example, of 10% and 3% and are operated by the software at the equilibration of the sample weight. This condition can be defined at a constant rate of percent weight variation such as, for example, 0.005%/min. FIG. 6 reports the DVS profiles of the amorphous form, crystalline form 1 and crystalline form 2 of the compound of formula (I). Relative Humidity (RH, %) values are reported on the x-axis while Change in Mass (%) is reported on the y axis. The curves are related to the sorption step between 0% RH and 90% RH at 25° C.

Where [1] appears, read: DVS sorption step, 25° C./90% RH.

“Also recorded” adds a separate entry of the source.

In the case of `CN1CCN(c2ccc(C(=O)Nc3n[nH]c4ccc(Cc5cc(F)cc(F)c5)cc34)c(NC3CCOCC3)c2)CC1` [crystalline form 1, N-[5-(3,5-Difluoro-benzyl)-1H-indazol-3-yl]-4-(4-methyl-piperazin-1-yl)-2-(tetrahydro-pyran-4-ylamino)-benzamide], the “hygroscopicity (in words)” value is on record as “low hygroscopicity”. Under setting [1], the water uptake worked out at 0.6%.

In the case of `CN1CCN(c2ccc(C(=O)Nc3n[nH]c4ccc(Cc5cc(F)cc(F)c5)cc34)c(NC3CCOCC3)c2)CC1` [amorphous form, N-[5-(3,5-Difluoro-benzyl)-1H-indazol-3-yl]-4-(4-methyl-piperazin-1-yl)-2-(tetrahydro-pyran-4-ylamino)-benzamide], the “hygroscopicity (in words)” value was “higher hygroscopicity than the crystalline forms 1 and 2; also recorded: hygroscopic solid”. Where the note is “DVS at 25° C., from RH values lower than 30% RH”, the water uptake result is on record as “greater than 1%”. This compound returned a water uptake under setting [1] of 2.5%.

For the compound `CN1CCN(c2ccc(C(=O)Nc3n[nH]c4ccc(Cc5cc(F)cc(F)c5)cc34)c(NC3CCOCC3)c2)CC1` [crystalline form 2, N-[5-(3,5-Difluoro-benzyl)-1H-indazol-3-yl]-4-(4-methyl-piperazin-1-yl)-2-(tetrahydro-pyran-4-ylamino)-benzamide], the “hygroscopicity (in words)” value is recorded as “low hygroscopicity”. The compound further registered a water uptake under setting [1] of 0.2%.

(Values after patent US9649306B2, “Treatment of diseases through administration of N-[5-(3,5-difluoro-benzyl)-1H-indazol-3-yl]-4-(4-methyl-piperazin-1-yl)-2-(tetrahydro-pyran-4-ylamino)-benzamide” (NERVIANO MEDICAL SCIENCES S.R.L., priority 2012, dated 2017).)
